Where a SMILES comes first, the peptide text is derived from it. Bridges are numbered along the chain shown (N, C = ends). [ ]: non-standard residue; d: D form. The star is where a group is joined. Val(Nα-amidino) = CC(C)[C@H](NC(=N)N)C(=O)*; Hyp = O=C(O)[C@@H]1C[C@@H](O)CN1; Cit = NC(=O)NCCC[C@H](N)C(=O)O; Pen = CC(C)(S)[C@H](N)C(=O)O; dDab = NCC[C@@H](N)C(=O)O; hSer = N[C@@H](CCO)C(=O)O; Orn = NCCC[C@H](N)C(=O)O; Dab = NCC[C@H](N)C(=O)O
How the values were obtained:
Type in all cases: cell-based
[1] = tested on: Escherichia coli ATCC 25922; conditions: ATCC 25922
Procedure, shortened: (§1)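 CLSI broth microdilution, slightly modified: cation-adjusted Mueller-Hinton II broth with about 5×10^5 CFU/mL from a 0.5 McFarland suspension, and two-fold serial peptide dilutions with Polysorbate 80 at 0.002% final. MIC (μg/mL) was the lowest concentration with no visible growth after 18-20 hours at 35° C.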

[2] = tested on: Escherichia coli MCR-1 Af 45; conditions: MCR-1 Af 45
Procedure, shortened: as §1

[3] = tested on: Klebsiella pneumoniae SSI3010; conditions: SSI3010
Procedure, shortened: as §1

[4] = tested on: human red blood cells (hRBC); conditions: red cells of human, 1 h, 200 μg/mL
Procedure, shortened: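 Peptides at 200 μg/mL incubated 1 h at 37 °C with 20% (v/v) washed human RBC, shaking. Hemolysis from supernatant OD540, expressed as percent of 2.5% Triton X-100 lysis, with PBS as 0%.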

Row | Escherichia coli ATCC 25922 MIC [1] [µg/mL] | Escherichia coli MCR-1 Af45 MIC [2] [µg/mL] | Klebsiella pneumoniae SSI3010 MIC [3] [µg/mL] | Compound | Hemolysis at 0.2 g/L [4] [%]
1 | 0.125 | 0.0625 | 0.125 | CC[C@H](C)[C@H](NC(=O)[C@@H]1C[C@@H](O)CN1C(=O)[C@@H](NC(=N)N)C(C)C)C(=O)N[C@@H]1C(=O)N[C@@H](Cc2ccc(O)cc2)C(=O)N[C@@H](CCN)C(=O)N[C@@H](CC(N)=O)C(=O)N[C@@H](CCCNC(=N)N)C(=O)N[C@@H](CCN)C(=O)N[C@@H]([C@@H](C)O)C(=O)N[C@H](CCN)C(=O)N[C@@H](CCN)C(=O)N[C@@H]([C@@H](C)O)C(=O)N[C@@H](CCN)C(=O)N[C@H](C(=O)N[C@@H](Cc2ccc(O)cc2)C(=O)O)CSSC1(C)C [Example 120, Gua-Val-Hyp-Ile-Pen-Tyr-Dab-Asn-Arg-Dab-Thr-^DDab-Dab-Thr-Dab-Cys-Tyr] ({Val(Nα-amidino)}-[Hyp]I[Pen]Y[Dab]NR[Dab]T[dDab][Dab]T[Dab]CY-OH; disulfide 3-14) | <1
2 | 0.0625 | 0.0625 | 0.125 | CC[C@H](C)[C@H](NC(=O)[C@@H]1C[C@@H](O)CN1C(=O)[C@@H](NC(=N)N)C(C)C)C(=O)N[C@@H]1C(=O)N[C@@H](Cc2ccc(O)cc2)C(=O)N[C@@H](CCN)C(=O)N[C@@H](CC(N)=O)C(=O)N[C@@H](CCCNC(=N)N)C(=O)N[C@@H](CCN)C(=O)N[C@@H]([C@@H](C)O)C(=O)N[C@H](CCN)C(=O)N[C@@H](CCCN)C(=O)N[C@@H]([C@@H](C)O)C(=O)N[C@@H](CCN)C(=O)N[C@H](C(=O)N[C@@H](Cc2ccc(O)cc2)C(=O)O)CSSC1(C)C [Example 121, Gua-Val-Hyp-Ile-Pen-Tyr-Dab-Asn-Arg-Dab-Thr-^DDab-Orn-Thr-Dab-Cys-Tyr] ({Val(Nα-amidino)}-[Hyp]I[Pen]Y[Dab]NR[Dab]T[dDab][Orn]T[Dab]CY-OH; disulfide 3-14) | <1
3 | 0.0625 | 0.03125 | 0.0625 | CC[C@H](C)[C@H](NC(=O)[C@@H]1C[C@@H](O)CN1C(=O)[C@@H](NC(=N)N)C(C)C)C(=O)N[C@@H]1C(=O)N[C@@H](Cc2ccc(O)cc2)C(=O)N[C@@H]([C@@H](C)O)C(=O)N[C@@H](CC(N)=O)C(=O)N[C@@H](CCCNC(=N)N)C(=O)N[C@@H](CCN)C(=O)N[C@@H]([C@@H](C)O)C(=O)N[C@H](CCN)C(=O)N[C@@H](CCN)C(=O)N[C@@H](CCN)C(=O)N[C@@H](CCN)C(=O)N[C@H](C(=O)N[C@@H](Cc2ccc(O)cc2)C(=O)O)CSSC1(C)C [Example 123, Gua-Val-Hyp-Ile-Pen-Tyr-Thr-Asn-Arg-Dab-Thr-^DDab-Dab-Dab-Dab-Cys-Tyr] ({Val(Nα-amidino)}-[Hyp]I[Pen]YTNR[Dab]T[dDab][Dab][Dab][Dab]CY-OH; disulfide 3-14) | <1
4 | 0.03125 | 0.03125 | 0.125 | CC[C@H](C)[C@H](NC(=O)[C@@H]1C[C@@H](O)CN1C(=O)[C@@H](NC(=N)N)C(C)C)C(=O)N[C@@H]1C(=O)N[C@@H](Cc2ccc(O)cc2)C(=O)N[C@@H]([C@@H](C)O)C(=O)N[C@@H](CC(N)=O)C(=O)N[C@@H](CCCNC(=N)N)C(=O)N[C@@H](CCN)C(=O)N[C@@H]([C@@H](C)O)C(=O)N[C@H](CCN)C(=O)N[C@@H](CCCN)C(=O)N[C@@H](CCN)C(=O)N[C@@H](CCN)C(=O)N[C@H](C(=O)N[C@@H](Cc2ccc(O)cc2)C(=O)O)CSSC1(C)C [Example 124, Gua-Val-Hyp-Ile-Pen-Tyr-Thr-Asn-Arg-Dab-Thr-^DDab-Orn-Dab-Dab-Cys-Tyr] ({Val(Nα-amidino)}-[Hyp]I[Pen]YTNR[Dab]T[dDab][Orn][Dab][Dab]CY-OH; disulfide 3-14) | <1
5 | 0.125 | 0.03125 | 0.125 | CC[C@H](C)[C@H](NC(=O)[C@@H]1C[C@@H](O)CN1C(=O)[C@@H](NC(=N)N)C(C)C)C(=O)N[C@@H]1C(=O)N[C@@H](Cc2ccc(O)cc2)C(=O)N[C@@H](CO)C(=O)N[C@@H](CC(N)=O)C(=O)N[C@@H](CCCNC(=N)N)C(=O)N[C@@H](CCN)C(=O)N[C@@H]([C@@H](C)O)C(=O)N[C@H](CCN)C(=O)N[C@@H](CCN)C(=O)N[C@@H](CCN)C(=O)N[C@@H](CCN)C(=O)N[C@H](C(=O)N[C@@H](Cc2ccc(O)cc2)C(=O)O)CSSC1(C)C [Example 125, Gua-Val-Hyp-Ile-Pen-Tyr-Ser-Asn-Arg-Dab-Thr-^DDab-Dab-Dab-Dab-Cys-Tyr] ({Val(Nα-amidino)}-[Hyp]I[Pen]YSNR[Dab]T[dDab][Dab][Dab][Dab]CY-OH; disulfide 3-14) | <1

More lines, now with the values behind:

Row | Compound | Escherichia coli ATCC 25922 MIC [1] [µg/mL] | Escherichia coli MCR-1 Af45 MIC [2] [µg/mL] | Klebsiella pneumoniae SSI3010 MIC [3] [µg/mL] | Hemolysis at 0.2 g/L [4] [%]
6 | CC[C@H](C)[C@H](NC(=O)[C@@H]1C[C@@H](O)CN1C(=O)[C@@H](NC(=N)N)C(C)C)C(=O)N[C@H]1CCNC(=O)CC[C@@H](C(=O)N[C@@H](Cc2ccc(O)cc2)C(=O)O)NC(=O)[C@H](CCN)NC(=O)[C@H](CCN)NC(=O)[C@H](CCCCN)NC(=O)[C@@H](CCN)NC(=O)[C@H]([C@@H](C)O)NC(=O)[C@H](CCN)NC(=O)[C@H](CCCNC(=N)N)NC(=O)[C@H](CC(N)=O)NC(=O)[C@H](CCCNC(N)=O)NC(=O)[C@H](Cc2ccc(O)cc2)NC1=O [Example 116, Gua-Val-Hyp-Ile-Dab-Tyr-Cit-Asn-Arg-Dab-Thr-^DDab-Lys-Dab-Dab-Glu-Tyr] ({Val(Nα-amidino)}-[Hyp]I[Dab]Y[Cit]NR[Dab]T[dDab]K[Dab][Dab]EY-OH; lactam 3-14) | 0.0625 | 0.0625 | 0.125 | <1
7 | CC[C@H](C)[C@H](NC(=O)[C@@H]1C[C@@H](O)CN1C(=O)[C@@H](NC(=N)N)C(C)C)C(=O)N[C@@H]1C(=O)N[C@@H](Cc2ccc(O)cc2)C(=O)N[C@@H](CCO)C(=O)N[C@@H](CC(N)=O)C(=O)N[C@@H](CCCNC(=N)N)C(=O)N[C@@H](CCN)C(=O)N[C@@H]([C@@H](C)O)C(=O)N[C@H](CCN)C(=O)N[C@@H](CCCCN)C(=O)N[C@@H](CCN)C(=O)N[C@@H](CCN)C(=O)N[C@H](C(=O)N[C@@H](Cc2ccc(O)cc2)C(=O)O)CSSC1(C)C [Example 117, Gua-Val-Hyp-Ile-Pen-Tyr-Hse-Asn-Arg-Dab-Thr-^DDab-Lys-Dab-Dab-Cys-Tyr] ({Val(Nα-amidino)}-[Hyp]I[Pen]Y[hSer]NR[Dab]T[dDab]K[Dab][Dab]CY-OH; disulfide 3-14) | 0.125 | 0.0625 | 0.125 | <1
8 | CC[C@H](C)[C@H](NC(=O)[C@@H]1C[C@@H](O)CN1C(=O)[C@@H](NC(=N)N)C(C)C)C(=O)N[C@H]1CCNC(=O)CC[C@@H](C(=O)N[C@@H](Cc2ccc(O)cc2)C(=O)O)NC(=O)[C@H](CCN)NC(=O)[C@H](CCN)NC(=O)[C@H](CCCCN)NC(=O)[C@@H](CCN)NC(=O)[C@H]([C@@H](C)O)NC(=O)[C@H](CCN)NC(=O)[C@H](CCCNC(=N)N)NC(=O)[C@H](CC(N)=O)NC(=O)[C@H](CCO)NC(=O)[C@H](Cc2ccc(O)cc2)NC1=O [Example 118, Gua-Val-Hyp-Ile-Dab-Tyr-Hse-Asn-Arg-Dab-Thr-^DDab-Lys-Dab-Dab-Glu-Tyr] ({Val(Nα-amidino)}-[Hyp]I[Dab]Y[hSer]NR[Dab]T[dDab]K[Dab][Dab]EY-OH; lactam 3-14) | 0.0625 | 0.0625 | 0.125 | <1
9 | CC[C@H](C)[C@H](NC(=O)[C@@H]1C[C@@H](O)CN1C(=O)[C@@H](NC(=N)N)C(C)C)C(=O)N[C@H]1CCNC(=O)CC[C@@H](C(=O)N[C@@H](Cc2ccc(O)cc2)C(=O)O)NC(=O)[C@H](CCN)NC(=O)[C@H](CCN)NC(=O)[C@H](CCCN)NC(=O)[C@@H](CCN)NC(=O)[C@H]([C@@H](C)O)NC(=O)[C@H](CCN)NC(=O)[C@H](CCCNC(=N)N)NC(=O)[C@H](CC(N)=O)NC(=O)[C@H]([C@@H](C)O)NC(=O)[C@H](Cc2ccc(O)cc2)NC1=O [Example 119, Gua-Val-Hyp-Ile-Dab-Tyr-Thr-Asn-Arg-Dab-Thr-^DDab-Orn-Dab-Dab-Glu-Tyr] ({Val(Nα-amidino)}-[Hyp]I[Dab]YTNR[Dab]T[dDab][Orn][Dab][Dab]EY-OH; lactam 3-14) | 0.0625 | 0.0625 | 0.125 | <1
10 | CC[C@H](C)[C@H](NC(=O)[C@@H]1C[C@@H](O)CN1C(=O)[C@@H](NC(=N)N)C(C)C)C(=O)N[C@@H]1C(=O)N[C@@H](Cc2ccc(O)cc2)C(=O)N[C@@H](CCCNC(N)=O)C(=O)N[C@@H](CC(N)=O)C(=O)N[C@@H](CCCNC(=N)N)C(=O)N[C@@H](CCN)C(=O)N[C@@H]([C@@H](C)O)C(=O)N[C@H](CCN)C(=O)N[C@@H](CO)C(=O)N[C@@H](CCN)C(=O)N[C@@H](CCN)C(=O)N[C@H](C(=O)N[C@@H](Cc2ccc(O)cc2)C(=O)O)CSSC1(C)C [Example 122, Gua-Val-Hyp-Ile-Pen-Tyr-Cit-Asn-Arg-Dab-Thr-^DDab-Ser-Dab-Dab-Cys-Tyr] ({Val(Nα-amidino)}-[Hyp]I[Pen]Y[Cit]NR[Dab]T[dDab]S[Dab][Dab]CY-OH; disulfide 3-14) | 0.125 | 0.25 | 0.25 | <1

From patent publication US20240336654A1, “ANTIMICROBIAL PEPTIDOMIMETICS” (SPEXIS AG, priority 2021, published 2024)
